Experimental data from patent US20090118220A1, “SUBSTITUTED ADENINES AND THE USES THEREOF” (AstraZeneca AB, priority 2006, published 2009).
≈ marks a conversion by molar mass, not a printed value.

What was measured:
[1] = target: S. pneumoniae LigA (Streptococcus pneumoniae serotype 4, UniProt Q97QT2); assay: DNA ligase FRET inhibition assay; format: biochemical; details: FRET detection, ten compound concentrations; read-out: IC50 (μM) against S. pneumoniae LigA
Procedure: (§1) Compounds were tested for inhibition of DNA ligase using a Fluorescence Resonance Energy Transfer (FRET) detection assay as previously described (Chen et al. 2002. Analytical Biochemistry 309: 232-240; Benson et al. 2004. Analytical Biochemistry 324:298-300). Assays were performed in 384-well polystyrene flat-bottom black plates in 30 μl reactions containing 3 μl compound dissolved in dimethylsulfoxide, 20 μl 1.5× Enzyme Working Solution (25% glycerol, 45 mM potassium chloride, 45 mM ammonium sulfate, 15 mM dithiothreitol, 1.5 mM ethylenediaminetetraacetic acid (EDTA), 0.003% Brij 35, 75 mM MOPS pH 7.5, 150 nM bovine serum albumin, 1.5 μM NAD^+, 60 nM DNA substrate, 0.375 nM enzyme in water) and 7 μl 70 mM magnesium chlorine solution (96 mM magnesium chloride, 20% glycerol in water) to initiate the reaction. The DNA substrate is similar to that described in Benson et al. (2004. Analytical Biochemistry 324:298-300). […] Plates were read in a Tecan Ultra plate reader at two separate wavelengths—Read 1: excitation 485, emission 535, Read 2: excitation 485, emission 595. […] Compound potency was based on IC50 measurements determined from reactions performed in the presence of ten different compound concentrations.

[2] = system: S. pneumoniae; assay: Bacterial susceptibility testing, microbroth dilution (NCCLS), MIC; format: cell-based; details: Streptococcus pneumoniae; lowest concentration able to reduce growth by 80% or more; read-out: MIC (μg/ml) against S. pneumoniae
Procedure: Compounds were tested for antimicrobial activity by susceptibility testing using microbroth dilution methods recommended by NCCLS. Compounds were dissolved in dimethylsulfoxide and tested in 10 doubling dilutions in the susceptibility assays such that the final dimethylsulfoxide concentration in the assay was 2% (v/v). The organisms used in the assay were grown overnight on appropriate agar media and then suspended in the NCCLS-recommended liquid susceptibility-testing media. The turbidity of each suspension was adjusted to be equal to a 0.5 McFarland standard, a further 1-in-10 dilution was made into the same liquid medium to prepare the final organism suspension, and 100 μL of this suspension was added to each well of a microtiter plate containing compound dissolved in 2 μL of dimethylsulfoxide. Plates were incubated under appropriate conditions of atmosphere and temperature and for times according to NCCLS standard methods prior to being read. The Minimum Inhibitory Concentration (MIC) was determined as the lowest drug concentration able to reduce growth by 80% or more.

[3] = system: DNA ligase; assay: DNA ligase FRET inhibition assay, isozyme not specified; format: biochemical
Procedure: as §1, with “reaction.” for “reaction. The DNA substrate is similar to that described in Benson et al. (2004. Analytical Biochemistry 324:298-300).”
Solubility is determined under assay conditions using a nephelometer to detect a change in turbidity as the concentration of compound increases. The limit of solubility is defined as the maximum concentration before a detectable increase in turbidity is measured.

S. pneumoniae LigA, sequence (Q97QT2 whole entry): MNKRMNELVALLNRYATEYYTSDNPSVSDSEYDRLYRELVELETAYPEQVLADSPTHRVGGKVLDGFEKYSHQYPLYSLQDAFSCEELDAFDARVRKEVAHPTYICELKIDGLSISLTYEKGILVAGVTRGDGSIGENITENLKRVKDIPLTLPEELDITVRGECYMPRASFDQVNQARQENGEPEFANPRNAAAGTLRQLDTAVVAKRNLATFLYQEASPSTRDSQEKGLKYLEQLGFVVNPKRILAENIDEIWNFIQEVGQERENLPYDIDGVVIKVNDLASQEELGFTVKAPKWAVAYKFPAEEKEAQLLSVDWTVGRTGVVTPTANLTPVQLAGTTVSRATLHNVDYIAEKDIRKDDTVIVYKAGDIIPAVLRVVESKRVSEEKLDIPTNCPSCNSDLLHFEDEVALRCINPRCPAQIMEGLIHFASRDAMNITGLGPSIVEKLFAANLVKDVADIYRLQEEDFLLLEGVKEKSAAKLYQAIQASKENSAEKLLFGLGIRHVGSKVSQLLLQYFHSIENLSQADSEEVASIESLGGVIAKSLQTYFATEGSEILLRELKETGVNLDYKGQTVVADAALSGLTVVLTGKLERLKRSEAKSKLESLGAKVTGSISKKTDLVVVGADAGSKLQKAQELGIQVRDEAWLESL

Row | IC50 [1] [µM] | inhibition of the ligation reaction at the limit of solubility in the assay medium [3] | SMILES | other results
1 | 10 |  | C[C@H]1O[C@@H](n2c(NCc3ccccc3)nc3c(N)nc(OC4CCCC4)nc32)[C@H](O)[C@@H]1O [Example 2] | 
2 |  |  | Nc1nc(OC2CCCC2)nc2c1ncn2[C@@H]1OC(CO)(CO)[C@@H](O)[C@H]1O [Example 12, (3S,4R,5R)-5-[6-amino-2-(cyclopentyloxy)-9H-purin-9-yl]-2,2-bis(hydroxymethyl)tetrahydrofuran-3,4-diol] | MIC [2]: 16 µg/mL (≈ 42 µM)
3 |  | approximately 12% | Nc1nc(OC2CCCC2)nc2c1ncn2C1OCCC1(Cl)Cl (centres unmarked) [2-(cyclopentyloxy)-9-(3,3-dichlorotetrahydrofuran-2-yl)-9H-purin-6-amine] | 
4 | 1 |  | Nc1nc(OC2CCCC2)nc2c1ncn2[C@@H]1OC(CF)(CF)[C@@H](O)[C@H]1O [Example 13, (3S,4R,5R)-5-[6-amino-2-(cyclopentyloxy)-9H-purin-9-yl]-2,2-bis(fluoromethyl)tetrahydrofuran-3,4-diol] | 
5 |  | approximately 17% | C=C[C@]1(O)[C@H](O)[C@@H](C)O[C@H]1n1cnc2c(N)nc(OC3CCCC3)nc21 [(2R,3S,4R,5R)-2-(6-amino-2-(cyclopentyloxy)-9H-purin-9-yl)-5-methyl-3-vinyltetrahydrofuran-3,4-diol] | 
